For 28 compounds, IC50 results are on record in US8691865B2 (AbbVie Inc., priority 2008, dated 2014).

Some results are limits rather than exact numbers.

In one experiment the target is human Cav2.2 (Homo sapiens, UniProt Q00975). As to the kind of experiment: Assessment of calcium channel activity using FLIPR (Ca2+ influx in IMR32 cells). Format: cell-based.
Sequence of human Cav2.2 (Q00975 whole entry): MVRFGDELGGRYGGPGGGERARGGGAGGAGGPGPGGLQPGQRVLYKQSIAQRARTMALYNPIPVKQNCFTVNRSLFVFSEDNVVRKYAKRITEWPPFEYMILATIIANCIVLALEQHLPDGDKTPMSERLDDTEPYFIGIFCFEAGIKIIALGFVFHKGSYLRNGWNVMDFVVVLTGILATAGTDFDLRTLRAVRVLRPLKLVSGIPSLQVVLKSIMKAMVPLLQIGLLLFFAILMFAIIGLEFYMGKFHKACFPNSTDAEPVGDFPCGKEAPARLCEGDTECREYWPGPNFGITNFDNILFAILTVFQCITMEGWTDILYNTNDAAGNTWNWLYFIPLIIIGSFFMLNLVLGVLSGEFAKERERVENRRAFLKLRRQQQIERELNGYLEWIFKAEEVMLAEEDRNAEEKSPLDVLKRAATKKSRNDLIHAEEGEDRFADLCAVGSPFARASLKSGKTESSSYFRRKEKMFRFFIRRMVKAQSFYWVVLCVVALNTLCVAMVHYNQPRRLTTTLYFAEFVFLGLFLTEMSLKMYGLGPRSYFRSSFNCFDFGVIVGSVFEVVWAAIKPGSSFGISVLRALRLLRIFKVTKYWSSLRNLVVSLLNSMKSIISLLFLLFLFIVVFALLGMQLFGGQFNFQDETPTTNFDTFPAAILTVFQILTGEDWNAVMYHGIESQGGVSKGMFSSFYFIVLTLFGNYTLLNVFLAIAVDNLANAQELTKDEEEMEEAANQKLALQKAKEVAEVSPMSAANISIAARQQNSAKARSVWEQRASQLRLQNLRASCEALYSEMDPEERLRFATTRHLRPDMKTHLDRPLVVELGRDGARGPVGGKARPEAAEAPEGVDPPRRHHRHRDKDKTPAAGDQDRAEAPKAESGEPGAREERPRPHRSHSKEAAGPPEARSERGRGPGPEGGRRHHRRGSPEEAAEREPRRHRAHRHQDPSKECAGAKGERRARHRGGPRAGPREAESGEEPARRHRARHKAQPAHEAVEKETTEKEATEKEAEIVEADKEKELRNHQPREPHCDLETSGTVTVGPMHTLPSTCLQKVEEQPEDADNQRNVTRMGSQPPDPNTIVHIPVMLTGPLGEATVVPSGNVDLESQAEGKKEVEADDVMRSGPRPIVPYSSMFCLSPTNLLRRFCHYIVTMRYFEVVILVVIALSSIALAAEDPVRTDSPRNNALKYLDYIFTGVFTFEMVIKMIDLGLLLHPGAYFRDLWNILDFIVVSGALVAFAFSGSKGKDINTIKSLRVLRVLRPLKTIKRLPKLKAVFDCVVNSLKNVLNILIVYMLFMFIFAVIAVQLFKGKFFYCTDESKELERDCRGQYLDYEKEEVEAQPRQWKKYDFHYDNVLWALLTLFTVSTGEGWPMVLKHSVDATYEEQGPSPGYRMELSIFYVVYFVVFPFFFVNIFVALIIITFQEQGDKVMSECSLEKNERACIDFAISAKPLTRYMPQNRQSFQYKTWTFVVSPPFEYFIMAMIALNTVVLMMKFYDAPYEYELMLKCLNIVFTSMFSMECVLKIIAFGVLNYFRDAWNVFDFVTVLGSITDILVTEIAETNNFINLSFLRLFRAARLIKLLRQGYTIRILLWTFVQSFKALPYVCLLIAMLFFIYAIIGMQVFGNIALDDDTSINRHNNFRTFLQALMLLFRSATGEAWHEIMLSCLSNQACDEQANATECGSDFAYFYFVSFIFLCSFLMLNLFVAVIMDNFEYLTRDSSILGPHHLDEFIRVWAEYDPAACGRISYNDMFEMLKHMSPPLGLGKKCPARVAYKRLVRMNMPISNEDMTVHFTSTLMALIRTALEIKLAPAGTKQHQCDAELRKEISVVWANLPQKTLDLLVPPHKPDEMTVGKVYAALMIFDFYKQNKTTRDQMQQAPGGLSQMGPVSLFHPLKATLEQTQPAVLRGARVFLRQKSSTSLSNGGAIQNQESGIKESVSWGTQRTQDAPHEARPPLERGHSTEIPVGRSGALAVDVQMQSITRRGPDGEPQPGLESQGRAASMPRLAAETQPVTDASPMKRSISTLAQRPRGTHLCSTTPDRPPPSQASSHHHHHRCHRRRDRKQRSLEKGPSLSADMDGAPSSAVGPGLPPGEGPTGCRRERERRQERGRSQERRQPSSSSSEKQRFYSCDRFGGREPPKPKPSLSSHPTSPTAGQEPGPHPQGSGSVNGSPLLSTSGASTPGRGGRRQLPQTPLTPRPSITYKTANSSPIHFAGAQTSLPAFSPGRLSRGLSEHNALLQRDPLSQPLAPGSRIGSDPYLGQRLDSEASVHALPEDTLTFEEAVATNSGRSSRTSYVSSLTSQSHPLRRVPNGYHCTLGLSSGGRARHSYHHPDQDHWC
Sequence of human Cav2.2 (P54289 25-956 partner limits assumed): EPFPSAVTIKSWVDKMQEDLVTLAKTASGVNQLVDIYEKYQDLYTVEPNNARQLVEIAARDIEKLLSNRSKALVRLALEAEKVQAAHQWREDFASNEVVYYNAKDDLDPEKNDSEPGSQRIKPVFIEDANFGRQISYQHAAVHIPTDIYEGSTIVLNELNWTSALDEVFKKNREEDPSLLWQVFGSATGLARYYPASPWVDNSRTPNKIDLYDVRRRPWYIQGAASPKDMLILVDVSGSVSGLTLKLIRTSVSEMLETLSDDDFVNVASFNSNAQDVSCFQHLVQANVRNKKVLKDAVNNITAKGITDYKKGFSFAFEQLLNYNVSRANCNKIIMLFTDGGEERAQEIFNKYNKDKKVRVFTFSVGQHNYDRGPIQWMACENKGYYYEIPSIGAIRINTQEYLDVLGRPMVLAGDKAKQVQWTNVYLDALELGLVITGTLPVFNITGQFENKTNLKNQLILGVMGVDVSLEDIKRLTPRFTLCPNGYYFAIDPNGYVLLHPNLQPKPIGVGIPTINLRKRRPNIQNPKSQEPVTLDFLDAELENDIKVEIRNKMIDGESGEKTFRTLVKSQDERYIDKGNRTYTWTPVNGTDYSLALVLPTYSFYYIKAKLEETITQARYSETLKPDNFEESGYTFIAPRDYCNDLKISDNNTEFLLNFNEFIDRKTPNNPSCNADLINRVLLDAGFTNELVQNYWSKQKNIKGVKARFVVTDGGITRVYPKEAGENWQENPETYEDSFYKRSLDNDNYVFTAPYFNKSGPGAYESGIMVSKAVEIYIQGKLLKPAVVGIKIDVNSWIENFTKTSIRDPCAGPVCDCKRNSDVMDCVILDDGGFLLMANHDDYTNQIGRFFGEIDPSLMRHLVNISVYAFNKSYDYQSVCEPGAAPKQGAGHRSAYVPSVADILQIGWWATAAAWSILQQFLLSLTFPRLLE
Sequence of human Cav2.2 (P54289 957-1103 partner limits assumed): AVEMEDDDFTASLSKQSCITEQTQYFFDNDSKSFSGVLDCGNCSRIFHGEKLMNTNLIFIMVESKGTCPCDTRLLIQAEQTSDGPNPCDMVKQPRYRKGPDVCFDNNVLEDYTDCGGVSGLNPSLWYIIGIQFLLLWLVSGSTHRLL
Sequence of human Cav2.2 (P54284 whole entry partner): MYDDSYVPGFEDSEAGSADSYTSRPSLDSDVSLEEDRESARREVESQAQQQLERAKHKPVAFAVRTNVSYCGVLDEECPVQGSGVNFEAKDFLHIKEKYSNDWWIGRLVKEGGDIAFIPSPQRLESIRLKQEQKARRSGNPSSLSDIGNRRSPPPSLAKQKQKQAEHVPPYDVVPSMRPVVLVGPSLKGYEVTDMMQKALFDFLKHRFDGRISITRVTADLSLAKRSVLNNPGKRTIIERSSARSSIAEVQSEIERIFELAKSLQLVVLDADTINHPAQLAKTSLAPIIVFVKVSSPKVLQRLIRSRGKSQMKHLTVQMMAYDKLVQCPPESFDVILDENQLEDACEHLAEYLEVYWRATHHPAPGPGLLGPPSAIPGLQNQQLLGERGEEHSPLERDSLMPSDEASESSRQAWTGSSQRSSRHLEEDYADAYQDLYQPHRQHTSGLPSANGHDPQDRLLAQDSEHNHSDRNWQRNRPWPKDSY
Conditions: not given
On the procedure:
(i) In Vitro Methods—Assessment of Calcium Channel Activity Using FLIPR:
The IMR32 cells were maintained in MEM media containing 10% (v/v) FBS, 1% (v/v) antibiotic/antimitotic, 1% (v/v) sodium pyruvate and 1% (v/v) MEM NEAA. Following dissociation in 0.05% (v/v) trypsin/EDTA, cells were seeded into black 1×96-well plates (Corning Cellbind) at a density of 1−1.2×10^5 cells/well and incubated in the maintenance media above for 48 hours at 37° C. […] To determine the IC50 values, the percent inhibition of the compound at each concentration was determined relative to the activity in the absence of inhibitor, and data was fitted using non-linear regression sigmoidal dose response curve analysis with GraphPad Prism®.
In the case of `CC(C)C(C(=O)N[C@@H]1CC[C@@H]2CN(Cc3ccccc3)C[C@@H]21)c1ccccc1` (relative stereo) [Example 5, N-[(3aR*,4R*,6aS*)-2-benzyloctahydrocyclopenta[c]pyrrol-4-yl]-3-methyl-2-phenylbutanamide], the IC50 stood at 1.46 µM. Same read-out and setting: with `CCC[C@H](NC(=O)OC(C)C)C(=O)N[C@H]1CC[C@@H]2CN(c3ccc(C(F)(F)F)cn3)C[C@@H]21` [Example 263, isopropyl(S)-1-oxo-1-((3aR,4S,6aS)-2-(5-(trifluoromethyl)pyridin-2-yl)octahydrocyclopenta[c]pyrrol-4-ylamino)pentan-2-ylcarbamate] the figure was above 30 µM; with `CC(C)N[C@@H](CC(C)(C)C)C(=O)N[C@H]1CC[C@@H]2CN(C(=O)[C@H](Cc3ccccc3)NC(C)C)C[C@@H]21` [Example 489, N^2-isopropyl-N^1-[(3aR,4S,6aS)-2-(N-isopropyl-L-phenylalanyl)octahydrocyclopenta[c]pyrrol-4-yl]-4-methyl-L-leucinamide], 15.7 µM. The same measure, in the same setting: with `CCC[C@H](NC)C(=O)N[C@H]1CC[C@@H]2CN(c3ccc(OC(F)(F)F)cc3)C[C@@H]21` [Example 719, N^2-methyl-N-{(3aR,4S,6aS)-2-[4-(trifluoromethoxy)phenyl]octahydrocyclopenta[c]pyrrol-4-yl}-L-norvalinamide] the figure was 10.6 µM. As for `N[C@@H](CC1CCCCC1)C(=O)N[C@H]1CC[C@@H]2CN(S(=O)(=O)c3ccc(C(F)(F)F)cc3)C[C@@H]21` [Example 426, 3-cyclohexyl-N^1-((3aR,4S,6aS)-2-{[4-(trifluoromethyl)phenyl]sulfonyl}octahydrocyclopenta[c]pyrrol-4-yl)-L-alaninamide], the half-inhibitory concentration (IC50) was 1.79 µM. Take `NC1(C(=O)N[C@H]2CC[C@@H]3CN(c4cccc(C(F)(F)F)n4)C[C@@H]32)CCCC1` [Example 594, 1-amino-N-{(3aR,4S,6aS)-2-[6-(trifluoromethyl)pyridin-2-yl]octahydrocyclopenta[c]pyrrol-4-yl}cyclopentanecarboxamide]: the IC50 is 1.45 µM. Consider `CCCC(CCC)C(=O)N[C@H]1CC[C@H]2CN(Cc3cccc(C(F)(F)F)c3)C[C@H]21` (relative stereo) [Example 126, 2-propyl-N-{(3aS*,4S*,6aR*)-2-[3-(trifluoromethyl)benzyl]octahydrocyclopenta[c]pyrrol-4-yl}pentanamide], for which the IC50 was found to be 0.95 µM. The same measure, in the same setting: with `O=C(N[C@@H]1CC[C@H]2CN(CCCCCC(c3ccc(F)cc3)c3ccc(F)cc3)C[C@H]21)C(C1CCCCC1)C1CCCCC1` [Example 78, N-{(3aS,4R,6aR)-2-[6,6-bis(4-fluorophenyl)hexyl]octahydrocyclopenta[c]pyrrol-4-yl}-2,2-dicyclohexylacetamide] the figure was 1.34 µM; with `O=C(N[C@H]1CC[C@@H]2CN(c3ccc(OC(F)(F)F)cc3)C[C@@H]21)[C@@H]1C[C@@H](F)CN1` [Example 631, (4R)-4-fluoro-N-{(3aR,4S,6aS)-2-[4-(trifluoromethoxy)phenyl]octahydrocyclopenta[c]pyrrol-4-yl}-L-prolinamide], above 30 µM; with `CC(C)(C)C[C@@H](C(=O)N[C@H]1CC[C@@H]2CN(S(=O)(=O)c3ccc(C(F)(F)F)cc3)C[C@@H]21)N(C1CC1)C1CC1` [Example 500, N^2,N^2-dicyclopropyl-4-methyl-N^1-((3aR,4S,6aS)-2-{[4-(trifluoromethyl)phenyl]sulfonyl}octahydrocyclopenta[c]pyrrol-4-yl)-L-leucinamide], 1.69 µM. Still for that read-out and setting: in the case of `CN[C@@H](CC(C)C)C(=O)N[C@H]1CC[C@@H]2CN(c3cccnc3C(F)(F)F)C[C@@H]21` [Example 767, N^2-methyl-N-{(3aR,4S,6aS)-2-[2-(trifluoromethyl)pyridin-3-yl]octahydrocyclopenta[c]pyrrol-4-yl}-L-leucinamide] it was 6.93 µM. On the same count and under the same terms, in the case of `CN[C@@H](CC(C)C)C(=O)N[C@H]1CC[C@@H]2CN(c3ccccc3C(F)F)C[C@@H]21` [Example 771, N-{(3aR,4S,6aS)-2-[2-(difluoromethyl)phenyl]octahydrocyclopenta[c]pyrrol-4-yl}-N^2-methyl-L-leucinamide] it was 2.9 µM. Regarding `O=C(N[C@H]1CC[C@@H]2CN(c3cccc(C(F)(F)F)n3)C[C@@H]21)c1cc2cc(F)ccc2[nH]1` [Example 697, 5-fluoro-N-{(3aR,4S,6aS)-2-[6-(trifluoromethyl)pyridin-2-yl]octahydrocyclopenta[c]pyrrol-4-yl}-1H-indole-2-carboxamide], the IC50 came out at 2.24 µM. As for `Cc1nc(CN[C@H]2CC[C@@H]3CN(c4cccc(C(F)(F)F)n4)C[C@@H]32)c[nH]1` [Example 676, (3aR,4S,6aS)-N-[(2-methyl-1H-imidazol-4-yl)methyl]-2-[6-(trifluoromethyl)pyridin-2-yl]octahydrocyclopenta[c]pyrrol-4-amine], the half-maximal inhibitory concentration (IC50) stood at 4.2 µM.

As to `CN[C@@H](CC(C)C)C(=O)N[C@H]1CC[C@@H]2CN(c3ccc(C#N)cc3)C[C@@H]21` [Example 647, N-[(3aR,4S,6aS)-2-(4-cyanophenyl)octahydrocyclopenta[c]pyrrol-4-yl]-N^2-methyl-L-leucinamide], the IC50 was 3.77 µM.

For the compound `CN[C@@H](CC(C)C)C(=O)N[C@H]1CC[C@@H]2CN(c3cccc(F)c3F)C[C@@H]21` [Example 730, N-[(3aR,4S,6aS)-2-(2,3-difluorophenyl)octahydrocyclopenta[c]pyrrol-4-yl]-N^2-methyl-L-leucinamide], the IC50 amounted to 1.26 µM.

Take `CN[C@@H](CC(C)C)C(=O)N[C@H]1CC[C@@H]2CN(c3cccc(C(F)(F)F)c3)C[C@@H]21` [Example 606, N^2-methyl-N-{(3aR,4S,6aS)-2-[3-(trifluoromethyl)phenyl]octahydrocyclopenta[c]pyrrol-4-yl}-L-leucinamide]: the IC50 is 1.19 µM.

With `O=C(N[C@H]1CC[C@H]2CN(Cc3cccc(C(F)(F)F)c3)C[C@H]21)C(C1CCCCC1)C1CCCCC1` [Example 54, 2,2-dicyclohexyl-N-{(3aS,4S,6aR)-2-[3-(trifluoromethyl)benzyl]octahydrocyclopenta[c]pyrrol-4-yl}acetamide], the 50% inhibitory concentration (IC50) turned out to be 0.46 µM. With `FC(F)(F)c1cccc(N2C[C@H]3CC[C@H](NCc4cc5ccncc5s4)[C@H]3C2)n1` [Example 721, (3aR,4S,6aS)-N-(thieno[2,3-c]pyridin-2-ylmethyl)-2-[6-(trifluoromethyl)pyridin-2-yl]octahydrocyclopenta[c]pyrrol-4-amine], the IC50 was 0.87 µM. The same measure, in the same setting: in the case of `CC(C)(C)NC(=O)N[C@H]1CC[C@@H]2CN(c3cccc(C(F)(F)F)n3)C[C@@H]21` [Example 711, 1-tert-butyl-3-{(3aR,4S,6aS)-2-[6-(trifluoromethyl)pyridin-2-yl]octahydrocyclopenta[c]pyrrol-4-yl}urea] it was 1.38 µM. The same measure, in the same setting: with `CN[C@@H](CC(C)C)C(=O)N[C@H]1CC[C@@H]2CN(c3cc(F)ccc3C(F)F)C[C@@H]21` [Example 770, N-{(3aR,4S,6aS)-2-[2-(difluoromethyl)-5-fluorophenyl]octahydrocyclopenta[c]pyrrol-4-yl}-N^2-methyl-L-leucinamide] the figure was 0.75 µM; with `CC(C)C[C@@H](O)C(=O)N[C@H]1CC[C@@H]2CN(c3cccc(C(F)(F)F)n3)C[C@@H]21` [Example 578, (2R)-2-hydroxy-4-methyl-N-{(3aR,4S,6aS)-2-[6-(trifluoromethyl)pyridin-2-yl]octahydrocyclopenta[c]pyrrol-4-yl}pentanamide], 1 µM. On the same count and under the same terms, with `O=S(=O)(N[C@H]1CC[C@@H]2CN(c3cccc(C(F)(F)F)n3)C[C@@H]21)c1ccccc1F` [Example 703, 2-fluoro-N-{(3aR,4S,6aS)-2-[6-(trifluoromethyl)pyridin-2-yl]octahydrocyclopenta[c]pyrrol-4-yl}benzenesulfonamide] the figure was 3.17 µM.

Staying with this experiment, now noted: read-out: IC50 (μM) or percent inhibition (* indicates 3 minute incubation, otherwise 60 minute); IC50; 60 minute pre-incubation with compound; IMR32 cells, 80 mM KCl depolarization.
On to `O=S(=O)(c1ccc(C(F)(F)F)cc1Cl)N1C[C@H]2CC[C@H](Nc3ccc(C(F)(F)F)cn3)[C@H]2C1` [Example 295, (3aR,4S,6aS)-2-{[2-chloro-4-(trifluoromethyl)phenyl]sulfonyl}-N-[5-(trifluoromethyl)pyridin-2-yl]octahydrocyclopenta[c]pyrrol-4-amine], for which the IC50 came out at 2.98 µM. On the same count and under the same terms, in the case of `O=C(N[C@@H]1CC[C@H]2CN(Cc3cccc(C(F)(F)F)c3)C[C@H]21)C(c1ccc(F)cc1)c1ccc(F)cc1` (relative stereo) [Example 146, 2,2-bis(4-fluorophenyl)-N-{(3aS*,4R*,6aR*)-2-[3-(trifluoromethyl)benzyl]octahydrocyclopenta[c]pyrrol-4-yl}acetamide] it was 0.79 µM; in that of `CC(C)C(C(=O)N[C@H]1CC[C@@H]2CN(CCC(c3ccc(F)cc3)c3ccc(F)cc3)C[C@@H]21)c1ccccc1` (stereo partly drawn) [Example 117, N-{(3aR,4S,6aS)-2-[3,3-bis(4-fluorophenyl)propyl]octahydrocyclopenta[c]pyrrol-4-yl}-3-methyl-2-phenylbutanamide], 0.88 µM; in that of “(3aR,4S,6aS)-N-[(4-chloro-1H-indol-3-yl)methyl]-2-[6-(trifluoromethyl)pyridin-2-yl]octahydrocyclopenta[c]pyrrol-4-amine [Example 692]”, 0.99 µM. Still for that read-out and setting: with `CC[C@H](C(=O)N[C@H]1CC[C@@H]2CN([C@@H](C)c3ccccc3)C[C@@H]21)c1ccccc1` [Example 211, (2S)-2-phenyl-N-{(3aR,4S,6aS)-2-[(1S)-1-phenylethyl]octahydrocyclopenta[c]pyrrol-4-yl}butanamide] the figure was 3.82 µM.

Broadly, the IC50 is the concentration at which inhibition is half-maximal.
